Data: patent US10632170B2, “Administration of compstatin to an individual for the treatment of a tumor” (The Trustees of the University of Pennsylvania, priority 2008, dated 2020)

Key:
[1] = system: MDSCs obtained from tumors and spleens; assay: CD11b expression in MDSCs after stimulation in vitro (flow cytometry); type: cell-based, mouse; conditions: for CD11b upregulation in C5aR-deficient MDSCs: FIG. 6A-6D
Experimental: Single-cell suspensions were pre-incubated with anti-mouse CD16/CD32 mAb (Fc block, 2.4G2; BD Pharmingen) to block Fcγ receptors, then incubated with primary antibody. Fluorochrome-conjugated mAbs against mouse CD3 (17A2), CD4 (L3T4), CD8 (53-6.7), CD11b (M1/70), CD25 (PC61), CD45 (30-F11), CD69 (H1.2F3) and Gr-1 (RB6-8C5), (all from BD Biosciences) were used according to the manufacturer's instructions. In order to determine C5aR cell-surface expression, cells were sequentially incubated with rabbit polyclonal anti-mouse C5aR (C1150-32, BD Biosciences) or rabbit isotype (BD Pharmingen, 550875) and FITC-conjugated anti-rabbit IgG (F0112, R&D Systems), or with rat anti-mouse C5aR (mAb clone 20/70 Hycult biotechnology b.v., distributor-Cell science Inc.) or rat isotype (BD Pharmingen, 553928) followed by FITC-conjugated anti-rat IgG (Zymed-Invitrogen). For some experiments cells were permeabilized with the use of fixation and perm/wash buffers (BD Biosciences) prior to C5aR staining. Stained cells were subjected to six-color flow cytometry on a FACSCanto flow cytometer (BD Biosciences) using FlowJo software (Tree Star Inc.).
The migration of PMN-MDSCs to tumors requires crossing of the endothelial barrier by MDSCs. Leukocytes, in order to leave the circulation and migrate to interstitial tissues, require the interaction of their integrins with adhesion molecules on endothelial cells. It was hypothesized that the same mechanisms apply to MDSCs migrating to tumor tissue. Since CD11b is the αm subunit of integrin CR3, which interacts with ICAM-1 expressed on endothelial cells during leukocyte extravasation, the changes in CD11b expression were evaluated in MDSCs obtained from tumors and spleens after C5a stimulation in vitro.

[2] = system: MDSCs from spleens and tumors; assay: ROS and RNS production in MDSCs after stimulation in vitro (H2DCFDA); type: cell-based, mouse; conditions: for ROS and RNS production in spleen MDSCs of C5aR-deficient mice: MDSCs from spleens of C5aR-deficient mice; for ROS and RNS production in tumor-associated MDSCs: either subpopulation, data not shown
Experimental: The oxidation sensitive dye 2′-7′-dichloro dihydrofluorescein diacetate (H2DCFDA) (Molecular Probes) was used for the measurement of ROS and RNS production in cells isolated from tumors or spleens. The excised tumors and spleens were mechanically disintegrated to obtain a single-cell suspension. Cells resuspended in DMEM were incubated with 2 μM of dye at 37° C. for 15 min. After washing with PBS, cells were stained for flow cytometry analysis as described above. MDSCs were distinguished from other cells present in the cell suspension as a viable CD45^+CD11b^+Gr-1^+ cell population, and the fluorescence intensity was estimated in the channel suitable for FITC according to the manufacturer's instruction. The amounts of ROS and RNS in cells were proportional to the intensity of fluorescence and were expressed as median fluorescence for gated populations. For some experiments, in addition to incubation with H2DCFDA, freshly isolated cells were simultaneously stimulated by 1, 10, or 100 nM of recombinant mouse C5a expressed as previously described (Strey et al., 2003, J. Exp. Med. 198:913-923) or 1 μM of phorbol myristate acetate (PMA; Sigma-Aldrich). Preliminary experiments have shown that stimulation of cells with 10 nM C5a induced the highest induction of ROS and RNS production.
To further verify the results obtained from these in vivo studies, MDSCs from spleens and tumors of wild-type mice were stimulated to produce ROS and RNS by incubating them with various concentrations of C5a in vitro. MDSCs isolated from C5aR-deficient mice were used as an additional control for these experiments. […] It was concluded that the unresponsiveness of tumor-associated MDSCs to in vitro C5a stimulation was a result of the strong stimulation of these cells for ROS and RNS production in vivo in the tumor microenvironment and the exhaustion of this system; therefore, further stimulation of these cells in vitro failed.

[3] = according to the manufacturer; cited from earlier work
[4] = system: TC-1 tumors; assay: TC-1 syngeneic tumor growth in mice (tumor volumes); type: in vivo, mouse
Experimental: To establish TC-1 tumors, male and female mice 6-16 weeks of age were anesthetized and injected subcutaneously (s.c.) with 1×10^5 TC-1 cells in the right or left rear flank. […] Beginning about 2 weeks after cell injection, mice were anesthetized, and their tumors were measured with calipers every 2-4 days until the tumor size required sacrificing of the animals. Measurements were taken in two dimensions (length and width) because the depth of the tumor was difficult to assess in live animals. The depth of the tumor was therefore estimated based on the smaller (width) measurement, and the volume of the tumor was calculated using the formula: (length×width×depth)±2. One hour prior to sacrifice, 5-bromo-2′-deoxyuridine (BrdU; Sigma) was injected intraperitoneally (i.p.) into mice at a single dose of 50 mg/kg for further assessment of tumor or immune cell proliferation. […] Excised tumors were measured in three dimensions to obtain an accurate volume and then weighed. Tumors and spleens were cut into sections for cell isolation, histologic examination, or freezing.
Control mice in the experiments utilizing C5aR antagonist or Taxol were injected s.c., or i.p., respectively, with ˜400 μl PBS alone, or in some cases, s.c. with the cyclic hexapeptide AcF[OPdChaA(d)R] […] The pattern of the administration of this control peptide to mice followed that described for the C5aR antagonist.
The effect of genotype or treatment on tumor growth (FIGS. 1-4) was analyzed with two-way analysis of variance (ANOVA) using GraphPad Prism (GraphPad Software, Inc.); the Bonferroni post-test correction was applied to control for the occurrence of false-positives. […] A p value equal to or less than 0.05 was considered significant.

[5] = biological target: T1, C5aR (Mus musculus, UniProt P30993); conditions: cited from earlier work
T1 construct: endogenous in cells; host or cells: host cells of living C57BL/6J mice bearing TC-1 tumours (in vivo)
T1 sequence (P30993 1-351): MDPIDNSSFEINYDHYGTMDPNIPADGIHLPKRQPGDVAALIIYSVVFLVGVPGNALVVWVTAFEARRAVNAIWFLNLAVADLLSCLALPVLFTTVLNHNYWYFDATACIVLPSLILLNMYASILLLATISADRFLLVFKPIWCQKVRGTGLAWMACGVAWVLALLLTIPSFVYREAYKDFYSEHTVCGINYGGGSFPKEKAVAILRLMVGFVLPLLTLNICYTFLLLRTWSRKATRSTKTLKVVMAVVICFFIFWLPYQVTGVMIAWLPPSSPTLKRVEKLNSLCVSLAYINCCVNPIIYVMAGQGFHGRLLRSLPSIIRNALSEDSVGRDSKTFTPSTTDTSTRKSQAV

[6] = system: TC-1 tumors; assay: Tumor cell proliferation, apoptosis and angiogenesis in end-point tumor specimens; type: in vivo, mouse; conditions: C5aR antagonist vs PBS
Experimental: The morphology of tumors and spleens was assessed by light microscopy (Olympus BX 60) of hematoxylin and eosin-stained 5-μm paraffin sections. To assess the number of cells in the S phase of the cell cycle, paraffin sections from tumors and spleens were stained with anti-BrdU. The presence of apoptotic cells in tumor sections was determined by staining for the activated caspase-3 site on cytokeratin 18. Both assays were performed as described previously (Markiewski et al., 2004, J. Immunol. 173:747-754). The microvascular density of engrafted tumors was evaluated by immunofluorescent staining for CD31 expression on endothelial cells in frozen sections. The bound biotinylated anti-CD31 (MEC 13.3-BD Biosciences) was visualized with a streptavidin-rhodamine complex (BD Biosciences). Fluorescence was evaluated by standard fluorescent microscopy (Olympus BX 60 microscope). BrdU incorporation into tumor cells and the microvascular density of tumors were quantified in 5-10 microscopic fields (400× for BrdU and 100× for microvascular density) with the use of ImageJ image analysis software (NIH, Bethesda, Md.), and mean values were calculated. Apoptosis was assessed in a semi-quantitative manner: Scores from 0 to 4 were assigned to sections, depending on the size of the area occupied by apoptotic cells. All analyses were performed in a blinded fashion.

[7] = system: arginase-1; assay: Arginase-1 expression in tumor whole-cell extracts (immunoblot); type: in vivo, mouse; conditions: C5aR antagonist-treated vs control mice; without reaching statistical difference; FIG. 7F
Experimental: Whole-cell extracts were prepared from tumor tissue mechanically disrupted in lysis buffer (20 mM HEPES, pH 7.4, 0.2 mM EDTA, 420 mM NaCl, 1.5 mM MgCl2, 20% glycerol) treated with protease and phosphatase inhibitors (1 mM DTT, 0.1 mM PMSF, 0.1 mM Na3VO4, 1 mM NaF, 1 mM β-glycerophosphate, and 2 μg/ml each of antipain dihydrochloride, aprotinin, bestatin and leupeptin). For each protein sample, 40 μg was electrophoresed on a 12% polyacrylamide gel and transferred to a PVDF membrane. Membranes were incubated overnight at 4° C. with mouse monoclonal arginase I (8C9) antibody (Santa Cruz Biotechnology) or mouse monoclonal β-actin (AC-15) antibody (Abeam). Primary antibody binding was detected using HRP-conjugated anti-mouse antibody (Bio-Rad Laboratories, Inc.) and chemiluminescence (Amersham Pharmacia Biotech, Inc.). Protein loading was normalized according to the abundance of β-actin, with Ponceau S-stained membranes used for verification. Protein expression was quantified by densitometry using ImageQuant software (Molecular Dynamics).

[8] = system: TC-1 tumors; assay: Immune cell infiltration of tumors (immunofluorescent staining for CD8, CD11b); type: in vivo, mouse
Experimental: The deposition of C3 cleavage products in tumor tissue was detected using a rat anti-mouse C3 mAb (clone 2/11), as described previously (Mastellos et al, 2004, Mol. Immunol. 40:1213-1221). […] Therefore, the positive reactivity in the tissue is thought to be associated with the activation of the complement cascade and C3 cleavage. C1q and MBL deposition were evaluated with the use of a rat anti-mouse C1q mAb (Abeam, Inc.) and a polyclonal goat anti-mouse MBL (Santa Cruz Biotechnology, Inc.), respectively. These sections were co-stained with the use of biotinylated anti-mouse CD31 to visualize tumor vasculature. CD8^+ T cell and myeloid-origin cell infiltrations of tumors were analyzed using anti-mouse CD8 and anti-mouse CD11b, respectively. Isotypic rat IgGs were used as a negative control. Anti-CD31, anti-CD8 and anti-CD11b and isotype controls were purchased from BD Biosciences. Primary antibodies bound in tissue were detected with donkey anti-rat or anti-goat Cy2-conjugated antibodies (The Jackson Laboratory), except for anti-CD31, which was visualized with a streptavidin-rhodamine complex (BD Biosciences). Immunofluorescent staining was performed on frozen, 5-μm-thick sections. For detection of complement deposition, green and red fluorescence images were merged with the use of Spot software (Diagnostic instruments, Inc.). CD8^+ tumor infiltrates were quantified using ImageJ image analysis software (NIH), positive cells were counted in whole tissue sections and means were calculated. The magnitude of CD11b^+ infiltrates was assessed in a semi-quantitative manner because of the relatively low numbers of infiltrating cells. Scores from 0 to 5 were assigned to sections, according to the relative intensity of the infiltrates. In addition, the distribution of infiltrating cells was analyzed. All analyses were performed in a blinded fashion.

CCCCCCCCCCCCCC(=O)O[C@@H]1[C@@H](C)[C@@]2(O)[C@@H](C=C(CO)C[C@]3(O)C(=O)C(C)=C[C@@H]23)[C@@H]2C(C)(C)[C@]12OC(C)=O [PMA, phorbol myristate acetate]
CD11b upregulation in C5aR-deficient MDSCs [1]: response | ROS and RNS production in spleen MDSCs of C5aR-deficient mice ([2]; FIG. 7H, 7I): brisk response | ROS and RNS production in tumor-associated MDSCs [2]: lack of an increase

CC(=O)O[C@H]1C(=O)[C@@]2(C)[C@H]([C@H](OC(=O)c3ccccc3)[C@]3(O)C[C@H](OC(=O)[C@H](O)[C@@H](NC(=O)c4ccccc4)c4ccccc4)C(C)=C1C3(C)C)[C@]1(OC(C)=O)CO[C@@H]1C[C@@H]2O [Taxol, Paclitaxel]
LD50 [3]: 128 mg/kg | suppressive effect on tumor growth compared with genetic C5aR deficiency ([4]; wild-type mice treated with Taxol vs C5aR-KO mice treated with PBS, FIG. 3C): similar

AcF[OPdChaA(d)R]
ability to block C5aR signaling ([5]; literature (Finch et al., 1999; Johswich et al., 2006)): does not have the ability to block C5aR signaling

Acetyl-Phe-[Orn-Pro-D-cyclohexylalanine-Trp-Arg] [C5aR antagonist]
blockade of C5a-mediated effects in rodent disease models ([5]; literature (Kohl et al., 2006; Holland et al.)): specifically block C5a-mediated effects | tumor cell proliferation and apoptosis, and the extent of angiogenesis [6]: only minimal differences | arginase-1 expression in tumors [7]: only slightly lower | further inhibition of tumor growth in C5aR-deficient mice ([4]; C5aR-deficient mice, in comparison to mice treated with control peptide): did not induce any further inhibition of tumor growth | tumor growth versus control mice treated with PBS ([4]; wild-type mice, 1 mg/kg s.c. every 2-3 days beginning 1 week after tumor cell injection, FIG. 3A): impaired tumor growth | inhibition of tumor growth compared with Taxol treatment ([4]; wild-type mice, C5aR antagonist 1 mg/kg s.c. vs Taxol 20 mg/kg i.p. once per week, FIG. 3A): comparable to that achieved by treatment with this anti-cancer therapeutic | location of CD11b+ cells in tumors ([8]; C5aR antagonist-treated mice, in control mice throughout the tumor sections): located only at the periphery of the tumors | number of cells expressing CD11b in tumor sections ([8]; C5aR antagonist-treated vs PBS-treated mice, FIG. 5F): lower | CD8+ cells infiltrating the tumor tissue ([8]; C5aR antagonist-treated vs control mice, FIG. 4A): heavily infiltrated by CD8^+ cells

B1: C5a: recombinant mouse C5a anaphylatoxin used to stimulate MDSCs in vitro (protein)
chain: NLHLLRQKIEEQAAKYKHSVPKKCCYDGARVNFYETCEERVARVTIGPLCIRAFNECCTIANKIRKESPHKPVQLGR
CD11b upregulation in C5aR-deficient MDSCs [1]: lack of CD11b upregulation | expression of CD11b in MO-MDSCs ([1]; MO-MDSCs, 10 nM C5a, FIG. 6C, 6D): did not respond | expression of CD11b in wild-type PMN-MDSCs ([1]; PMN-MDSCs from spleens and tumors, 10 nM C5a, FIG. 6A, 6B): significant increase | C5a concentration giving the highest induction of ROS and RNS production ([2]; 1, 10 or 100 nM tested, preliminary experiments): 10 nM | ROS and RNS production in spleen MDSCs of C5aR-deficient mice ([2]; FIG. 7H, 7I): did not respond | ROS and RNS production in spleen MDSCs of wild-type mice ([2]; both subpopulations, vs non-stimulated cells from the same mouse, FIG. 7H, 7I): increasing their ROS and RNS production | ROS and RNS production in tumor-associated MDSCs [2]: did not respond
